In brackets after ≈: the same amount, converted by molar mass. Activity calls are given as the source filed them. A value given as a limit tells only on which side of the number the result lay.

14 molecules from ChEMBL document CHEMBL4396945, “Hybrid molecules of scutellarein and tertramethylpyrazine's active metabolites for ischemic stroke” (Bioorg Med Chem Lett, 2019) can be followed below.

Data set [1] deals with PC-12. Description: Antioxidant activity against H2O2-induced oxidative stress in rat PC12 cells assessed as cell viability preincubated for 24 hrs followed by H2O2 stimulation further incubated for 5 hrs by MTS assay. Type of data set: functional, cell-based. A general note: Formazan colour is commonly taken as a measure of viable cells.
Data set [2] deals with Plasma. Description: Anticoagulant activity in rabbit platelet poor plasma assessed as fibrinogen level at 100 uM incubated for 3 mins by coagulometric analysis (reference value: 14.24 +/- 0.67 g/l). Type of data set: functional, Oryctolagus cuniculus.
Data set [3] concerns Rattus norvegicus. Description: Neuroprotective activity in Sprague-Dawley rat model of middle cerebral artery occlusion-induced ischemia-reperfusion injury assessed as decrease in infarct area at 0.7 mmol/kg, ig for 7 days by TTC staining based assay. Type of data set: functional, organism-based.
The nature of data set [4]: Solubility in water. Type of data set: physicochemical.
Data set [5] has as its system Plasma. Kind of data set: Anticoagulant activity in rabbit platelet poor plasma assessed as activated partial thromboplastin time at 100 uM incubated for 3 mins by coagulometric analysis (reference value: 19.13 +/- 0.54 sec). The class given is functional, Oryctolagus cuniculus.
Data set [6] can be described thus: Lipophilicity, logP of compound. The class given is physicochemical. The conditions noted are these: octanol/water.
The subject of data set [7] is Plasma. Description: Anticoagulant activity in rabbit platelet poor plasma assessed as thrombin time at 100 uM incubated for 3 mins by coagulometric analysis (reference value: 12.58 +/- 0.76 sec). Type of data set: functional, Oryctolagus cuniculus.
Data set [8] deals with Plasma. Description: Anticoagulant activity in rabbit platelet poor plasma assessed as prothrombin time at 100 uM incubated for 3 mins by coagulometric analysis (reference value: 4.32 +/- 0.28 sec). The class given is functional, Oryctolagus cuniculus.
Data set [9] can be described thus: Stability in pH 7.4 phosphate buffer assessed as half life. The class given is physicochemical.
In data set [10] the test system is Rattus norvegicus. Description: Neuroprotective activity in Sprague-Dawley rat middle cerebral artery occlusion-induced ischemia-reperfusion injury model assessed as reduction in dissolution of hippocampus CA1 at 0.35 to 1.40 mmol/kg, ig administered for 7 days by HE staining based assay. Type of data set: functional, organism-based.
Data set [11] concerns Rattus norvegicus. Kind of data set: Neuroprotective activity in Sprague-Dawley rat middle cerebral artery occlusion-induced ischemia-reperfusion injury model assessed as reduction in hyperchromic of hippocampus CA1 at 0.35 to 1.40 mmol/kg, ig administered for 7 days by HE staining based assay. The class given is functional, organism-based.
Data set [12] relates to Rattus norvegicus. Description: Neuroprotective activity in Sprague-Dawley rat middle cerebral artery occlusion-induced ischemia-reperfusion injury model assessed as reduction in nuclear pyknosis of hippocampus CA1 at 0.35 to 1.40 mmol/kg, ig administered for 7 days by HE staining based assay. The class given is functional, organism-based.
Data set [13] has as its system Rattus norvegicus. Kind of data set: Neuroprotective activity in Sprague-Dawley rat middle cerebral artery occlusion-induced ischemia-reperfusion injury model assessed as decrease in irregular cell morphology of hippocampus CA1 at 0.35 to 1.40 mmol/kg, ig administered for 7 days by HE staining based assay. The class given is functional, organism-based.
For data set [14], the system named is Rattus norvegicus. Kind of data set: Neuroprotective activity in ig dosed Sprague-Dawley rat model of middle cerebral artery occlusion-induced ischemia-reperfusion injury assessed as decrease in infarct area by TTC staining based assay. The class given is functional, organism-based.

Usually solubility stands for the dissolved amount per volume that the medium holds. In general, logP refers to a log measure of how a compound divides between an organic and an aqueous phase. With `Cc1nc(C)c(C)nc1C` [LIGUSTRAZINE], the Activity entry in data set [1] was “Dose-dependent effect”. In addition, the Fibrinogen level in data set [2] came to 3.28 g/L. Further, the result in data set [3] was Active. Further, the concentration in solution in data set [4] (solubility) came to 4500 µg/mL (≈ 33000 µM). Also, in data set [5], the APTT is 39.24 s. In data set [6], the logP was found to be 1.26. Besides, in data set [7], the TT amounted to 25.36 s. For the same molecule, the PT in data set [8] is on record as 6.13 s.
Usually half-life stands for the time needed for the level to fall by half in the phase considered. For the molecule `CC[C@H](C)[C@@H](NC(=O)OCc1nc(C)c(C)nc1C)C(=O)Oc1ccc(-c2cc(=O)c3c(O)c(O)c(O)cc3o2)cc1`, the Activity result in data set [1] is “Dose-dependent effect”. Moreover, the Fibrinogen level in [2] is given as 2.54 g/L. For the same molecule, in data set [4], the solubility was 234 µg/mL (≈ 406 µM). In addition, in [5], the APTT amounted to 49.28 s. The same molecule showed a logP in data set [6] of 2.83. Also, the half-life in data set [9] is 64.8 h. In data set [7], the TT amounted to 38.42 s. Also, the PT in data set [8] is given as 8.32 s.
As for `Cc1nc(C)c(COC(=O)CCCOc2ccc(-c3cc(=O)c4c(O)c(O)c(O)cc4o3)cc2)nc1C`, in data set [1], the Activity result was “Dose-dependent effect”. The solubility in data set [4] was determined as 356 µg/mL (≈ 703 µM). The logP in data set [6] worked out at 1.48. Also, the half-life in data set [9] was 19.8 h.
For the molecule `Cc1nc(C)c(C(=O)NCC(=O)Oc2ccc(-c3cc(=O)c4c(O)c(O)c(O)cc4o3)cc2)nc1C`, the Activity result in [1] is “Dose-dependent effect”. The Fibrinogen level in data set [2] worked out at 3.12 g/L. Besides, in [4], the solubility came out at 628 µg/mL (≈ 1280 µM). Moreover, in [5], the APTT was 43.57 s. In [6], this molecule gave a logP of 2.8. The half-life in data set [9] was above 72 h. In [7], the TT is given as 32.16 s. Further, the PT in [8] came to 6.39 s.
`Cc1nc(C)c(C(=O)N[C@@H](C(=O)N[C@@H](C)C(=O)Oc2ccc(-c3cc(=O)c4c(O)c(O)c(O)cc4o3)cc2)C(C)C)nc1C`: in data set [1], the Activity entry is “Dose-dependent effect”. In data set [4], this molecule had a solubility of 856 µg/mL (≈ 1420 µM). For the same molecule, in data set [6], the logP turned out to be 1.98. Further, in data set [9], the half-life is 51.6 h.
For `Cc1nc(C)c(COC(=O)COc2ccc(-c3cc(=O)c4c(O)c(O)c(O)cc4o3)cc2)nc1C`, the Activity result in [1] was “Dose-dependent effect”. This molecule also showed a solubility in data set [4] of 30.6 µg/mL (≈ 64 µM). Further, in [6], the lipophilicity (logP) amounted to 2.39. Also, the half-life in data set [9] was 21.4 h.
The matching figures for `Cc1nc(C)c(C(=O)N[C@@H](C(=O)Oc2ccc(-c3cc(=O)c4c(O)c(O)c(O)cc4o3)cc2)C(C)C)nc1C`: “Dose-dependent effect”, 240 µg/mL (≈ 449 µM), 1.38 and above 72 h.
For `O=c1cc(-c2ccc(O)cc2)oc2cc(O)c(O)c(O)c12` [SCUTELLAREIN], in data set [1], the Activity result is “Dose-dependent effect”. Moreover, the Fibrinogen level in data set [2] is 7.41 g/L. Moreover, the outcome in data set [3] was Active. This molecule showed a solubility in data set [4] of 14.4 µg/mL (≈ 50.3 µM). In addition, the APTT in data set [5] stood at 34.26 s. Further, in [6], the logP amounted to 0.96. In addition, the half-life in [9] is 5.5 h. The TT in data set [7] was 18.12 s. Further, the PT in data set [8] worked out at 5.72 s.
For the molecule `Cc1nc(C)c(COC(=O)NCC(=O)Oc2ccc(-c3cc(=O)c4c(O)c(O)c(O)cc4o3)cc2)nc1C`, the Activity entry in data set [1] is “Dose-dependent effect”. The solubility in data set [4] turned out to be 454 µg/mL (≈ 871 µM). In addition, the logP in data set [6] was 2.1. In addition, in [9], the half-life was 14.3 h.
As to `Cc1nc(C)c(C(=O)Oc2ccc(-c3cc(=O)c4c(O)c(O)c(O)cc4o3)cc2)nc1C`, the Activity result in data set [1] is “Dose-dependent effect”. Besides, in data set [4], the solubility worked out at 12.1 µg/mL (≈ 27.9 µM). In [6], the logP was determined as 3.01. For the same molecule, the half-life in data set [9] is 15.1 h.
The corresponding values for `Cc1nc(C)c(COC(=O)N[C@@H](C(=O)Oc2ccc(-c3cc(=O)c4c(O)c(O)c(O)cc4o3)cc2)C(C)C)nc1C` are “Dose-dependent effect”, 252 µg/mL (≈ 448 µM), 1.04 and 45.6 h.
For `Cc1nc(C)c(COC(=O)N[C@H](CC(C)C)C(=O)Oc2ccc(-c3cc(=O)c4c(O)c(O)c(O)cc4o3)cc2)nc1C`, in [1], the Activity entry is “Dose-dependent effect”. In addition, in data set [2], the Fibrinogen level turned out to be 2.47 g/L. The same molecule gave a solubility in data set [4] of 221 µg/mL (≈ 382 µM). The APTT in data set [5] is recorded as 47.56 s. For the same molecule, in data set [6], the logP was 1.69. Moreover, the half-life in data set [9] was 57.2 h. Also, the TT in data set [7] came out at 37.91 s. Besides, the PT in data set [8] was 8.57 s.
For `Cc1nc(C)c(COC(=O)N[C@H](C)C(=O)Oc2ccc(-c3cc(=O)c4c(O)c(O)c(O)cc4o3)cc2)nc1C`, the result in data set [10], in data set [11], in data set [12] and in data set [13] was Active. In addition, the Activity entry in [1] and in data set [14] was “Dose-dependent effect” throughout. In data set [2], the Fibrinogen level was 2.68 g/L. In addition, the concentration in solution in data set [4] (solubility) was 799 µg/mL (≈ 1490 µM). The APTT in [5] is listed as 48.21 s. The log partition coefficient (logP) in data set [6] came to 1.53. For the same molecule, the half-life in data set [9] is 27.8 h. Moreover, in data set [7], the TT is 36.25 s. For the same molecule, the PT in data set [8] was found to be 7.72 s.
In the case of `Cc1nc(C)c(C(=O)N[C@H](CC(C)C)C(=O)Oc2ccc(-c3cc(=O)c4c(O)c(O)c(O)cc4o3)cc2)nc1C`, the Activity result in data set [1] is “Dose-dependent effect”. The molecule also came in with a solubility in [4] of 26 µg/mL (≈ 47.5 µM). The logP in data set [6] was found to be 0.91. Besides, the half-life in data set [9] is 69.2 h.
